From ChEMBL document CHEMBL1142732, “In-depth study of tripeptide-based alpha-ketoheterocycles as inhibitors of thrombin. Effective utilization of the S1' subsite and its implications to structure-based drug design” (J Med Chem, 2005)

Experiments:
[1] = target: T1, Serine protease 1 (Bos taurus, UniProt P00760); test: Binding affinity against bovine trypsin
T1 sequence (P00760 whole entry): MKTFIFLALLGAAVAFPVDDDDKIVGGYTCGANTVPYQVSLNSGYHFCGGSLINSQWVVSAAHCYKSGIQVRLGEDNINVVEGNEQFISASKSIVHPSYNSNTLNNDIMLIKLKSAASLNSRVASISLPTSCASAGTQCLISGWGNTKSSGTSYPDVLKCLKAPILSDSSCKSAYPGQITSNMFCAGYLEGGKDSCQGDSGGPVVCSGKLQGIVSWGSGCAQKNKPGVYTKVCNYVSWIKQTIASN

[2] = target: T2, Prothrombin (Homo sapiens, UniProt P00734); test: Inhibitory concentration against human alpha thrombin
[3] = target: T2, Prothrombin; test: Binding affinity determined against human alpha thrombin
[4] = tested on: Cavia porcellus; test: Percent change in blood pressure in guinea pig at 3 mg/kg dose
[5] = species: Homo sapiens; test: Inhibitory concentration against gel filtered platelet aggregation induced by alpha thrombin; type: functional

| SMILES | Ki [1] | IC50 [2] | Ki [3] | Delta BP [4] | IC50 [5] |
| --- | --- | --- | --- | --- | --- |
| CCOC(=O)c1csc(C(=O)C(CCCN=C(N)N)NC(=O)[C@@H]2CCCN2C(=O)[C@@H](Cc2ccccc2)NC)n1 (stereo partly specified) | 5.4 nM | 120 nM | 4.5 nM | – | – |
| CN[C@H](Cc1ccc(F)cc1)C(=O)N1CCC[C@H]1C(=O)NC(CCCN=C(N)N)C(=O)c1nc2ccccc2s1 (stereo partly specified) | 3 nM | 15 nM | 0.12 nM | – | – |
| CN[C@H](Cc1ccccc1)C(=O)N1CCC[C@H]1C(=O)NC(CCCN=C(N)N)C(=O)c1nc2ccc(OC)cc2s1 (stereo partly specified) | 2 nM | – | – | -44% | – |
| CN[C@H](Cc1ccccc1)C(=O)N1CCC[C@H]1C(=O)N[C@H](CCCCN)C(=O)c1nc2ccccc2s1 | 20 nM | – | 210 nM | -41% | – |
| CN[C@H](Cc1ccccc1)C(=O)N1CCC[C@H]1C(=O)NC(CCCN=C(N)N)C(=O)c1nc2ccc(O)cc2s1 (stereo partly specified) | – | – | – | -34% | – |
| CN[C@H](Cc1ccccc1)C(=O)N1CCC[C@H]1C(=O)NC(CCCN=C(N)N)C(=O)c1nc(C(=O)NCCc2ccccc2)cs1 (stereo partly specified) | 5 nM | 830 nM | 120 nM | – | – |
| CNC1(C(=O)N2CCC[C@H]2C(=O)NC(CCCN=C(N)N)C(=O)c2nc3ccccc3s2)CCCCC1 (stereo partly specified) | 2.6 nM | 490 nM | 73 nM | – | – |
| CCCC(CCC)C(=O)N[C@@H](CC(=O)OC)C(=O)N1CCC[C@H]1C(=O)N[C@@H](CCCNC(=N)N)C(=O)c1nc2ccccc2s1 | 16 nM | 56 nM | 1.4 nM | – | 16 nM |
| CNC(C(=O)N1CCC[C@H]1C(=O)NC(CCCN=C(N)N)C(=O)c1nc2ccccc2s1)(c1ccccc1)c1ccccc1 (stereo partly specified) | 1.8 nM | 15 nM | 2.1 nM | – | – |
| Cc1cccc(C(C)(C)CN(CC(=O)N[C@@H](CCCN=C(N)N)C(=O)c2nc3ccccc3s2)C(=O)CCc2ccccc2)c1 | 57 nM | 4000 nM | 400 nM | – | – |
| CN[C@H](Cc1c(F)c(F)c(F)c(F)c1F)C(=O)N1CCC[C@H]1C(=O)NC(CCCN=C(N)N)C(=O)c1nc2ccccc2s1 (stereo partly specified) | 9.3 nM | 150 nM | 3.8 nM | – | – |
| CN[C@H](Cc1ccccc1)C(=O)N1CCCC[C@H]1C(=O)NC(CCCN=C(N)N)C(=O)c1nc2ccccc2s1 (stereo partly specified) | 1.8 nM | 38 nM | 0.34 nM | -45% | 10 nM |
| CN[C@@H](C(=O)N1CCC[C@H]1C(=O)NC(CCCN=C(N)N)C(=O)c1nc2ccccc2s1)C1CCCCC1 (stereo partly specified) | 1.2 nM | 5.3 nM | – | -21% | 17 nM |
| CCS(=O)(=O)N[C@H](Cc1ccccc1)C(=O)N1CCC[C@H]1C(=O)NC(C(=O)c1nc2ccccc2s1)C1CCC(N)CC1 (stereo partly specified) | 87 nM | 460 nM | 53 nM | – | 120 nM |
| CN[C@H](Cc1ccccc1)C(=O)N1CCC[C@H]1C(=O)NC(CCCN=C(N)N)C(=O)c1nc2ccccc2n1C (stereo partly specified) | 290 nM | 110 nM | 8.1 nM | -30% | 59 nM |
| CN[C@H](CC1CCCCC1)C(=O)N1CCC[C@H]1C(=O)NC(CCCN=C(N)N)C(=O)c1nc2ccccc2s1 (stereo partly specified) | 3.9 nM | – | – | -49% | 28 nM |
| CN[C@@H](C(=O)N1CCC[C@H]1C(=O)NC(CCCN=C(N)N)C(=O)c1nc2ccccc2s1)c1ccccc1 (stereo partly specified) | – | 34 nM | 0.46 nM | -63% | 17 nM |
| CN[C@H](Cc1ccccc1)C(=O)N1CCC[C@H]1C(=O)N[C@@H](CCCCN)C(=O)c1nc2ccccc2s1 | 4.3 nM | 650 nM | 38 nM | -45% | – |
| CN[C@H](Cc1ccccc1)C(=O)N1CCC[C@H]1C(=O)N[C@@H](CCCN=C(N)N)C(O)c1nc2ccccc2s1 (stereo in doubt; form 1) | 180000 nM | 48000 nM | 5300 nM | – | – |
| CN[C@H](Cc1ccccc1)C(=O)N1CCC[C@H]1C(=O)N[C@@H](CCCN=C(N)N)C(O)c1nc2ccccc2s1 (stereo in doubt; form 2) | 250000 nM | 17000 nM | 1600 nM | – | – |
